Among the data in ChEMBL document CHEMBL4513149, “CO-ADD screening of MMV (CH) - MMV compounds” (2021) are MIC and CC50 values, retold here.

Test [1] deals with Pseudomonas aeruginosa. The experiment in a line: microbe, parasite or virus in culture. As to conditions: ATCC 27853, 18 h, ASSAY_TEST Inhibition of Bacterial Growth, detection method Absorption (OD600), MEDIA CAMHB, plate type 384well, NBS, CORNING #3640.
Description: Antibacterial activity against Pseudomonas aeruginosa ATCC 27853 (CO-ADD:GN_042); MIC in CAMBH media using NBS plates, by OD(600)
In test [2] the test system is Klebsiella pneumoniae. Description: microbe, parasite or virus in culture. Particulars: ATCC 700603, 18 h, ASSAY_TEST Inhibition of Bacterial Growth, detection method Absorption (OD600), MEDIA CAMHB, plate type 384well, NBS, CORNING #3640.
Description: Antibacterial activity against Klebsiella pneumoniae MDR ATCC 70063 (CO-ADD:GN_003); MIC in CAMBH media using NBS plates, by OD(600)
Test [3] concerns Escherichia coli. The experiment in a line: microbe, parasite or virus in culture. As to conditions: ATCC 25922, 18 h, ASSAY_TEST Inhibition of Bacterial Growth, detection method Absorption (OD600), MEDIA CAMHB, plate type 384well, NBS, CORNING #3640.
Description: Antibacterial activity against Escherichia coli ATCC 25922 (CO-ADD:GN_001); MIC in CAMBH media using NBS plates, by OD(600)
For test [4], the system named is Cryptococcus neoformans.
Description: Antifungal activity against Cryptococcus neoformans H99 ATCC 208821 (CO-ADD:FG_002); MIC in YNB media using NBS plates, by Resazurin OD(600-570)
Test [5] has as its system Acinetobacter baumannii. The experiment in a line: microbe, parasite or virus in culture. As to conditions: ATCC 19606, 18 h, ASSAY_TEST Inhibition of Bacterial Growth, detection method Absorption (OD600), MEDIA CAMHB, plate type 384well, NBS, CORNING #3640.
Description: Antibacterial activity against Acinetobacter baumannii ATCC 19606 (CO-ADD:GN_034); MIC in CAMBH media using NBS plates, by OD600
The test system of test [6] is Candida albicans. Description: microbe, parasite or virus in culture. Particulars: ATCC 90028, ASSAY_TEST Inhibition of Fungal Growth, detection method Absorption (OD530), plate type 384well, NBS, CORNING #3640.
Description: Antifungal activity against Candida albicans ATCC 90028 (CO-ADD:FG_001); MIC in YNB media using NBS plates, by OD630
In test [7] the test system is Staphylococcus aureus. The experiment in a line: microbe, parasite or virus in culture. Particulars: ATCC 43300, 18 h, ASSAY_TEST Inhibition of Bacterial Growth, detection method Absorption (OD600), MEDIA CAMHB, plate type 384well, NBS, CORNING #3640.
Description: Antibacterial activity against Staphylococcus aureus MRSA ATCC 43300 (CO-ADD:GP_020); MIC in CAMBH media, using NBS plates, by OD(600)
The subject of test [8] is HEK293. Description: cells. Type of test: functional. As to conditions: Homo sapiens, ATCC CRL1573, HEK293; ASSAY_TEST Inhibition of Cell Viability; detection method Resazurin; Fluorescence (ex560/em590); MEDIA DMEM with 10% FBS; plate type 384well; TC; CORNING #3712; time 18 hr. (In general: Alamar Blue is a resazurin reagent that responds to reducing activity.)

Converted amounts (≈) assume the structure as drawn.

The CC50 is the concentration giving 50% cytotoxicity. Consider `COc1cccc(-n2nnnc2S(C)(=O)=O)c1`, for which the MIC in test [1], in test [2], in test [3], in test [4], in test [5] and in test [6] was more than 10 µM in each case. In test [7], this molecule gave an MIC of more than 10 µM. Further, in test [8], the half-maximal cytotoxic concentration (CC50) came out at 2.96 µM.

As to `N=C(N)Nc1ccc(-c2ccc(-c3ccc(NC(=N)N)cc3Cl)o2)c(Cl)c1`, the MIC was 10 µM (≈ 4.03 µg/mL) in test [1]; 10 µM (≈ 4.03 µg/mL) in test [2]; 5 µM (≈ 2.02 µg/mL) in test [3]; 1.25 µM (≈ 0.504 µg/mL) in test [4]; 5 µM (≈ 2.02 µg/mL) in test [5]; 2.5 µM (≈ 1.01 µg/mL) in test [6]. Besides, the MIC in test [7] turned out to be 1.25 µM (≈ 0.504 µg/mL). For the same molecule, the CC50 in test [8] is more than 10 µM.

`Cc1cc(NC(=O)c2ccc(Oc3ccc(Cl)cc3O)o2)no1`: the MIC in test [1], in test [2], in test [3], in test [4], in test [5] and in test [6] was more than 10 µM each time. The molecule further returned an MIC in test [7] of more than 10 µM. This molecule registered a CC50 in test [8] of more than 10 µM.

On to `CCN(CC)S(=O)(=O)c1ccc(C(=O)Nc2cc(C)nn2-c2nc(C)c(C)c(=O)[nH]2)cc1`, for which the MIC in test [1], in test [2], in test [3], in test [4], in test [5] and in test [6] was more than 10 µM throughout. In test [7], the MIC is more than 10 µM. Moreover, the CC50 in test [8] was more than 10 µM.

On to `COc1ccc2nccc(NC(=O)C3CCN(CCc4ccc(Cl)cc4)CC3)c2n1`, for which the MIC in test [1], in test [2], in test [3], in test [4], in test [5] and in test [6] was more than 10 µM each time. The same molecule gave an MIC in test [7] of 1.25 µM (≈ 0.531 µg/mL). This molecule also displayed a 50% cytotoxic concentration (CC50) in test [8] of more than 10 µM.

For the molecule `O=C1O[C@@H](COc2ccon2)CN1c1cc(F)c(C2=CCN(Cc3ccccc3)CC2)c(F)c1`, the MIC in test [1], in test [2], in test [3], in test [4], in test [5] and in test [6] was more than 10 µM throughout. The same molecule had an MIC in test [7] of more than 10 µM. The molecule also gave a CC50 in test [8] of more than 10 µM.

Turning to `CN1CCN(CCCOc2ncc(Nc3ncc(-c4ccc(C(F)(F)F)c(F)c4)nc3C(N)=O)cn2)CC1`, the MIC in test [1], in test [2], in test [3], in test [4], in test [5] and in test [6] was more than 10 µM in each case. The MIC in test [7] was more than 10 µM. In test [8], this molecule registered a CC50 of more than 10 µM.

`N=C(N)Nc1ccc(-c2ccc(-c3ccc(N=C(N)N)c(Cl)c3)o2)cc1Cl`: the MIC in test [1], in test [2], in test [3], in test [4], in test [5] and in test [6] was more than 10 µM in each case. Also, the MIC in test [7] turned out to be 10 µM (≈ 4.03 µg/mL). This molecule also returned a CC50 in test [8] of more than 10 µM.

On to `c1cncc(NCc2ccc(-c3cc4ccncc4cc3OC3CCNCC3)s2)c1`, for which the MIC in test [1], in test [2], in test [3], in test [4], in test [5] and in test [6] was more than 10 µM throughout. The same molecule displayed an MIC in test [7] of more than 10 µM. Besides, the CC50 in test [8] is more than 10 µM.

Regarding `Cc1cc(NCCc2ccccc2)nc(NC(=N)Nc2ccc(Cl)cc2)n1`, the MIC in test [1], in test [2], in test [3], in test [4], in test [5] and in test [6] was more than 10 µM throughout. Further, the MIC in test [7] is more than 10 µM. For the same molecule, the CC50 in test [8] is more than 10 µM.

Take `c1ccc(-c2nc(NC3CCCCC3)cc(C3CC3)n2)nc1`: the MIC in test [1], in test [2], in test [3], in test [4], in test [5] and in test [6] was more than 10 µM throughout. In test [7], this molecule came in with an MIC of 10 µM (≈ 2.94 µg/mL). The molecule also returned a CC50 in test [8] of more than 10 µM.
